Test results taken from patent US7691898B2 (Kotobuki Pharmaceutical Co., Ltd., priority 2004, dated 2010).

Key:
NaH2PO4 loaded mice = test: Inhibitory effect on the elevation of serum phosphate levels in NaH2PO4 loaded mice; assay type: in vivo; conditions: Mus musculus; male ddY mice, oral, compound 0.5 hours before oral NaH2PO4 load; serum phosphate AUC up to 4 hours
Procedure: EVALUATION OF INHIBITORY EFFECT ON THE ELEVATION OF SERUM PHOSPHATE LEVELS 1N NaH2PO4 LOADED MICE Male ddY mice, aged 6-7 weeks, were fasted overnight and used as 6 mice/group. The compounds suspended in 0.5% methylcellulose were administered orally at a dose of 100 or 300 mg/10 mL/kg. After 0.5 hours, 50 mg/300 uL/mouse of NaH2PO4 solution was administered orally. Blood samples were taken from retro-orbital venousplexus of the mice before administration of the compounds and 0.5, 1, 2 and 4 hours after the NaH2PO4 administration, and serum phosphate concentration was measured using phospha C-test Wako kit (Wako pure chemicals Co. Ctd.). The area under the serum phosphate concentration-time curve (AUC) up to 4 hours after administration of NaH2PO4 was calculated and the inhibitory effect of serum phosphate levels was evaluated.

[1] = test system: Human alkaline phosphatase; test: Stability test against human alkaline phosphatase; assay type: in vitro ADME; conditions: for amount of compound (HPLC) after incubation with human alkaline phosphatase: 2 U/mL enzyme, 0.1 M carbonate buffer, 37° C.
Procedure: Compound 42 or 2′-PP was dissolved in dimethyl sulfoxide and the concentration was adjusted to 1×10^−2 M. […] The amounts of each compound were measured by the HPLC method (HPLC condition, column: Inertsil ODS-2, eluent: 10 mM phosphate buffer/CH3CN=8/2, wavelength: 230 nm, flow rate: 1 mL/min).

Row | SMILES | ED30 (NaH2PO4 loaded mice) [mg/kg] | further results
1 | CCOc1ccc(Cc2cc(CP(=O)(O)O)ccc2O)cc1 [Compound 20, [3-(4-Ethoxybenzyl)-4-hydroxybenzyl]phosphonic acid] | 244 | 
2 | CCOc1ccc(Cc2cc(C(=O)P(=O)(O)O)ccc2O)cc1 [Compound 38, [3-(4-Ethoxybenzyl)-4-hydroxybenzoyl]phosphonic acid] | 44.5 | 
3 | CSc1ccc(Cc2cc(C(=O)P(=O)(O)O)ccc2O)cc1 [Compound 42, [4-Hydroxy-3-(4-methylthiobenzyl)benzoyl]phosphonic acid] | 33.3 | amount of compound (HPLC) after incubation with human alkaline phosphatase ([1]; Time 0 hr): 100%; amount of compound (HPLC) after incubation with human alkaline phosphatase ([1]; Time 0.25 hr): 96.3%; amount of compound (HPLC) after incubation with human alkaline phosphatase ([1]; Time 0.5 hr): 96%; amount of compound (HPLC) after incubation with human alkaline phosphatase ([1]; Time 1 hr): 95.8%; amount of compound (HPLC) after incubation with human alkaline phosphatase ([1]; Time 2 hr): 95.5%; stability against human alkaline phosphatase (in words) ([1]; conclusion from Table 1): stable
4 | CCCOc1ccc(Cc2cc(C(=O)P(=O)(O)O)ccc2O)cc1 [Compound 45, [4-Hydroxy-3-(4-n-propoxybenzyl)benzoyl]phosphonic acid] | 20.1 | 
5 | CC(C)Oc1ccc(Cc2cc(C(=O)P(=O)(O)O)ccc2O)cc1 [Compound 46, [4-Hydroxy-3-(4-i-propoxybenzyl)benzoyl]phosphonic acid] | 16.3 | 
6 | O=C(c1ccc(O)c(Cc2ccc(Oc3ccccc3)cc2)c1)P(=O)(O)O [Compound 49, [4-Hydroxy-3-(4-phenoxybenzyl)benzoyl]phosphonic acid] | 17.8 | 
7 | O=C(c1ccc(O)c(Cc2cc3ccccc3s2)c1)P(=O)(O)O [Compound 54, [3-(Benzo[b]thiophen-2-ylmethyl)-4-hydroxybenzoyl]phosphonic acid] | 13.9 | 
8 | CCOc1ccc(Cc2cc(C(=O)P(=O)(O)O)ccc2OCCO)cc1 [Compound 57, [3-(4-Ethoxybenzyl)-4-(2-hydroxyethoxy)benzoyl]phosphonic acid] | 30.9 | 
9 | CSc1ccc(Cc2cc(C(=O)P(=O)(O)O)ccc2OCCO)cc1 [Compound 60, [4-(2-Hydroxyethoxy)-3-(4-methylthiobenzyl)benzoyl]phosphonic acid] | 12.1 | 
10 | CCOc1ccc(Cc2ccc(P(=O)(O)O)s2)cc1 [Compound 64, 5-(4-Ethoxybenzyl)-2-thiophenephosphonic acid] | 165 | 
11 | CCOc1ccc(Cc2ccc(CP(=O)(O)O)s2)cc1 [Compound 65, [5-(4-Ethoxybenzyl)thiophen-2-ylmethyl]phosphonic acid] | 256 | 
12 | CCOc1ccc(Cc2ccc(C(=O)P(=O)(O)O)s2)cc1 [Compound 70, [5-(4-Ethoxybenzyl)thiophen-2-carbonyl]phosphonic acid] | 20.3 | 
13 | CSc1ccc(Cc2ccc(C(=O)P(=O)(O)O)s2)cc1 [Compound 73, [5-(4-Methylthiobenzyl)thiophen-2-carbonyl]phosphonic acid] | 4.5 | 
14 | O=C(c1ccc(Cc2ccc(Cl)cc2)s1)P(=O)(O)O [Compound 75, [5-(4-Chlorobenzyl)thiophen-2-carbonyl]phosphonic acid] | 25.6 | 
15 | CCSc1ccc(Cc2ccc(C(=O)P(=O)(O)O)s2)cc1 [Compound 76, [5-(4-Ethylthiobenzyl)thiophen-2-carbonyl]phosphonic acid] | 2 | 
16 | CCCCCCCCCCCCCOc1ccc(Cc2ccc(C(=O)P(=O)(O)O)s2)cc1 [Compound 83, [5-(4-n-Tridecanyloxybenzyl)thiophen-2-carbonyl]phosphonic acid] | 10.7 | 
17 | O=C(CCc1ccc(O)cc1)c1c(O)cc(O)cc1OP(=O)(O)O [reference compound] |  | amount of compound (HPLC) after incubation with human alkaline phosphatase ([1]; Time 0 hr): 100%; amount of compound (HPLC) after incubation with human alkaline phosphatase ([1]; Time 0.25 hr): 31.4%; amount of compound (HPLC) after incubation with human alkaline phosphatase ([1]; Time 0.5 hr): 21.4%; amount of compound (HPLC) after incubation with human alkaline phosphatase ([1]; Time 1 hr): 16.3%; amount of compound (HPLC) after incubation with human alkaline phosphatase ([1]; Time 2 hr): 1.2%
